Data on eleven molecules can be found in patent publication EP0523873A1, “Non-substrate peptide inhibitors of farnesyl protein transferase” (MERCK & CO. INC., priority 1991, dated 1993).

Test [1] addresses T1, Farnesyl-protein transferase from bovine brain (partially purified) (Bos taurus, UniProt P29702+P49355).
T1 construct: Farnesyl-protein transferase was prepared from bovine brain; from tissue; host or cells: bovine brain (cerebral lobes); Ras substrate expressed in E. coli
The experiment in a line: Inhibition of Ras farnesylation in vitro by tetrapeptides. It counts as biochemical. How it is done: (§1) Polyisoprenylation of Ras- [³H]Farnesyldiphosphate (FPP) (20 Ci/mmol) was purchased from New England Nuclear. Farnesyl-protein transferase activity assays were carried out as 30°C unless noted otherwise. […] After thermally pre-equilibrating the assay mixture in the absence of enzyme, reactions were initiated by the addition of farnesyl-protein transferase and stopped at timed intervals by the addition of 1 M HCl in ethanol (1 mL). The quenched reactions were allowed to stand for 15 minutes (to complete the precipitation process). After adding 2 mL of 100% ethanol, the reactions were vacuum-filtered through Whatman GF/C filters. Filters were washed four times with 2 mL aliquots of 100% ethanol, mixed with scintillation fluid (10 mL) and then counted in a Beckman LS3801 scintillation counter.
(§2) For inhibition studies, assays were run as described above, except putative inhibitors were added at the concentrations indicated. IC₅₀ values were determined with both farnesyl-protein transferase substrates at their KM concentrations.
Farnesyl-protein transferase was prepared from bovine brain. All purification steps were performed at 4°C. Cerebral lobes from bovine brains were homogenized in lysis buffer containing 50 mM. Tris-Cl, pH 8.0, 1 mM EGTA, 1 mM MgCl₂, 5 mM dithiothreitol, 10 µg/mL aprotinin, 0.5 mM phenylmethyl sulfonyl fluoride (PMSF), 2 µg/mL anitpain and 2 µg/mL leupeptin. Cellular debris and membranes were removed by centrifugation (10,000 g for 20 minutes followed by 100,000 g for 30 minutes). The supernatant was loaded directly onto a column (30 cm x 20 cm²) [formula] of DEAE-Sephacel that had been equilibrated with lysis buffer. The column was washed with the same buffer and proteins were eluted with a linear gradient of NaCL (0-500 mM, 1 L + 1 L) [formula] in the same buffer. Fractions (20 mL) were collected and those containing farnesyl-protein transferase activity were pooled. Each pool was then applied to an ω-Aminooctyl agarose column (30 cm x 4.9 cm²) [formula] and eluted with a linear gradient of NaCl (0-500 mM, 500 mL + 500 mL) [formula] in lysis buffer. Fractions containing farnesylprotein transferase were pooled. For most assays further partial purifiation was achieved by HPLC using a Mono Q H.R. 10/10 column and eluting farnesyl-protein transferase activity with a 0-0.3 M NaCl gradient over 85 minutes at 2 ml/min.
Farnesyl-protein transferase from bovine brain was chromatographed on DEAE-Sephacel (Pharmacia, 0-0.8 M NaCl gradient elution), N-octyl agarose (Sigma, 0-0.6 M NaCl gradient elution), and a Mono Q HPLC column (Pharmacia, 0.0.3M NaCl gradient). […] Data presented in the Table 2 are the average of 2-5 determinations. Single capital letter amino acid abbreviations are used above.

For test [2], the system named is partially pure bovine brain farnesyl-protein transferase. Kind of test: Tetrapeptides tested as farnesylation substrates with [3H]FPP (TLC / autoradiography). The note with it: peptide 200 µM, 0.5 µM [3H]-FPP, 30 minutes at 30°C. The test is classed as biochemical. From the text: (§3) When a peptide was used as the acceptor substrate, there were two changes to the assay: (1) Ras protein was excluded and, (2) the reactions were stopped by the addition of one tenth volume of 0.5 M EDTA. A portion of the reaction mixture was spotted onto a TLC plate (silica gel 60 thin layer chromatography plates (20 cm x 20 cm, 0.25 mm layer thickness) [formula] were from E. Merck (Darrnstadt)) and eluted with either ethyl acetate:pyridine:acetic acid:water (10:5:1:3) or n-propanol:water (7:3) elution systems. After drying under vacuum, the plates were sprayed with En³Hance and exposed to X-ray film at -70°C.
CAAX tetrapeptides and other tetrapeptides including Cys-Xaa¹-Xaa²-Xaa³ were tested as farnesylation substrates using [³H]FPP and partially pure bovine brain farnesyl-protein transferase.
The indicated peptides at 200 µM were incubated with partially pure bovine farnesyl-protein transferase and 0.5 µM [3H]-FPP for 30 minutes at 30°C. Autoradiographic exposure time was overnight (15-20 hours).

The target of test [3] is farnesyl-protein transferase (bovine brain) (Bos taurus, UniProt P29702+P49355). The note with it: read-out: KM for FPP; 30°C, 50 mM HEPES, pH 7.5, 5 mM MgCl2, 5 mM dithiothreitol. How it is done: as §1, §2
Farnesyl-protein transferase was prepared from bovine brain. All purification steps were performed at 4°C. Cerebral lobes from bovine brains were homogenized in lysis buffer containing 50 mM. Tris-Cl, pH 8.0, 1 mM EGTA, 1 mM MgCl₂, 5 mM dithiothreitol, 10 µg/mL aprotinin, 0.5 mM phenylmethyl sulfonyl fluoride (PMSF), 2 µg/mL anitpain and 2 µg/mL leupeptin. […]

Test [4] concerns farnesyl-protein transferase. The note with it: earlier findings (Schaber et al., ibid); cited from earlier work.
The test system of test [5] is farnesyl-protein transferase. Kind of test: Mechanism of inhibition using homogenous, pure farnesyl-protein transferase. It counts as biochemical, bovine. How it is done:
To prepare pure enzyme, the […], […], was covalently bound to Affigel-10 under anhydrous conditions as described by the manufacture (15 µmol peptide per 1 mL of Affigel-10). Unreacted resin was treated with ethanolamine. After multiple passes of ω-aminooctyl-agarose-column-purified protein over the peptide column, the column was washed and eluted as described by Reiss, et al., (1990) ibid, to recover farnesyl-protein transferase activity.
To further verify that Cys-Xaa¹-Xaa²-Xaa³ were interacting with the active site of farnesyl-protein transfer, CIFM (SEQ ID NO: 2) was evaluated for its mechanism of inhibition using homogenous, pure farnesyl-protein transferase.

Test [6] deals with farnesyl-protein transferase. The experiment in a line: Tetrapeptides tested as farnesylation substrates ([3H]FPP, TLC and autoradiography). It counts as biochemical. Conditions: [³H]FPP, partially pure bovine brain farnesyl-protein transferase, TLC, autoradiography.
From the text: as §3
CAAX tetrapeptides and other tetrapeptides including Cys-Xaa¹-Xaa²-Xaa³ were tested as farnesylation substrates using [³H]FPP and partially pure bovine brain farnesyl-protein transferase. […] Thin layer chromatography (TLC) conditions were developed which resolved the substrates farnesyl diphosphate (Rf = 0.06) [formula] and CVLS (Rf = 0.28) [formula] and product S-farnesyl-CVLS (Rf = 0.58) [formula] . These Rf values reflect TLC conditions using ethylacetate: pyridine:acetic acid:water (10:5:1:3) as the elutent. […] Control peptides having a Cys to Ser substitution were not substrates. […]

[7] abbreviates: Ras-CVLS at 3.5 µM, 0.25 µM [3H]FPP (both substrates at KM), average of 2-5 determinations, read-out: IC50.

pIC50: −log10 of the molar value. Read-outs that look alike come from different tables or passages of the source. Square brackets hold non-standard residues; d marks the D form. Peptide text beside a SMILES is read from it. Phe(4-F) = N[C@@H](Cc1ccc(F)cc1)C(=O)O

In turn, `CC[C@H](C)[C@H](NC(=O)[C@@H](NC(=O)[C@@H](N)CS)C(C)C)C(=O)N[C@@H](CCSC)C(=O)O` [CVIM] (H-CVIM-OH) gave a pIC50 in test [1] of 7.00. Besides, the “Farnesylation Substrate” value in test [2] was “+ (+ > 90% [3H] farnesyl diphosphate converted to [3H] farnesyl tetrapeptide)”.
With `CC[C@H](C)[C@H](NC(=O)[C@@H](N)CS)C(=O)N[C@@H](Cc1ccc(F)cc1)C(=O)N[C@@H](CCSC)C(=O)O` [CI(p-fluoro-F)M] (H-CI[Phe(4-F)]M-OH), the pIC50 in test [1] (setting [7]) was 8.00. Moreover, the “Farnesylation Substrate” value in test [2] is on record as “- (- < 1% conversion)”.
Turning to `CC[C@H](C)[C@H](NC(=O)[C@H](C)NC(=O)[C@@H](N)CS)C(=O)N[C@@H](CCSC)C(=O)O` [CAIM] (H-CAIM-OH), in test [1] (setting [7]), the pIC50 was 6.70. Besides, the “Farnesylation Substrate” value in test [2] was “+ (+ > 90% [3H] farnesyl diphosphate converted to [3H] farnesyl tetrapeptide)”.
As to `CC[C@H](C)[C@H](NC(=O)[C@@H](N)CS)C(=O)N[C@@H](Cc1ccccc1)C(=O)N[C@@H](CCC(N)=O)C(=O)O` [CIFQ, Cys-Ile-Phe-Gln] (H-CIFQ-OH), in test [1] (setting [7]), the pIC50 was 7.64. For the same molecule, in test [2], the “Farnesylation Substrate” value is recorded as “- (- < 1% conversion)”.
For `CC[C@H](C)[C@H](NC(=O)[C@H](Cc1ccc(O)cc1)NC(=O)[C@@H](N)CS)C(=O)N[C@@H](CCSC)C(=O)O` [CYIM] (H-CYIM-OH) the same measures were 7.00 and “+ (+ > 90% [3H] farnesyl diphosphate converted to [3H] farnesyl tetrapeptide)”.
With `CSCC[C@H](NC(=O)[C@H](Cc1ccccc1)NC(=O)[C@@H](NC(=O)[C@@H](N)CS)C(C)C)C(=O)O` [CVFM, Cys-Val-Phe-Met], in test [2], the “Farnesylation Substrate” value is on record as “- (- < 1% conversion)”.
Same read-out and setting: to `CC(C)C[C@H](NC(=O)[C@@H](NC(=O)[C@@H](N)CO)C(C)C)C(=O)N[C@@H](CO)C(=O)O` [SVLS] (H-SVLS-OH) belongs “- (- < 1% conversion)”.
In the case of `CC(C)=CCC/C(C)=C/CC/C(C)=C/CO[P@@](=O)(O)OP(=O)(O)O` (stereo in doubt) [FPP, farnesyl diphosphate], in test [3], the Km was determined as 0.25 µM.
With `CC[C@H](C)[C@H](NC(=O)[C@H](C)NC(=O)[C@@H](N)CS)C(=O)N[C@@H](CO)C(=O)O` [CAIS] (H-CAIS-OH), the pIC50 in test [1] (setting [7]) is 6.00. The “Farnesylation Substrate” value in test [2] was “+ (+ > 90% [3H] farnesyl diphosphate converted to [3H] farnesyl tetrapeptide)”.
Take “SSGCVLS [heptapeptide SSGCVLS, earlier found to serve as a substrate for isoprenylation]”: the substrate for isoprenylation entry in test [4] was “served as a substrate for isoprenylation”.
Regarding `CC[C@H](C)[C@H](NC(=O)[C@@H](N)CS)C(=O)N[C@@H](Cc1ccccc1)C(=O)N[C@@H](CCSC)C(=O)O` [CIFM, Cys-Ile-Phe-Met] (H-CIFM-OH), in test [1] (setting [7]), the pIC50 was 8.00. For the same molecule, in test [5], the “mechanism of inhibition with respect to Ras protein substrate” value is given as “competitive inhibitor” and the “mechanism of inhibition with respect to farnesyl diphosphate” value is “not a competitive inhibitor”. Moreover, in test [2], the “Farnesylation Substrate” value is recorded as “- (- < 1% conversion)”. In addition, the farnesylation substrate activity result in test [6] is on record as “do not serve as effective substrates”.
